What follows are compounds tested against T1, human CRHR2-alpha (Homo sapiens, UniProt Q13324) (assay: cAMP functional assay for human CRHR2 (LANCE Ultra TR-FRET)). Settings: inhibition of cAMP production in CHO-K1 cells stably expressing human CRHR2-alpha, EC90 of human urocortin2 as agonist; read-out: IC50 against CRHR2.
T1 construct: host or cells: CHO-K1
T1 sequence (Q13324 1-411): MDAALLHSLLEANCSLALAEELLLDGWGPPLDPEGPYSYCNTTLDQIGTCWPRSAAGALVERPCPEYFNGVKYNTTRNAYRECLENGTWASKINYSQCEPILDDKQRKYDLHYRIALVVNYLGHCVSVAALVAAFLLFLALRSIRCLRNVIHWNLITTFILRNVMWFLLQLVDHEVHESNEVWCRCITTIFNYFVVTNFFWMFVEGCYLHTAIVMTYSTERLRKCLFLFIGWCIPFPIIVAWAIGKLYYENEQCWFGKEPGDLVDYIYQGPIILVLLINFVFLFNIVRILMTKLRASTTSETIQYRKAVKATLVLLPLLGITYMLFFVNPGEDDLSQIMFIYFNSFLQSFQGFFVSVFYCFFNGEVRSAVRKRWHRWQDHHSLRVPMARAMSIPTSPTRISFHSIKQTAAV
Type: cell-based
Method: cAMP functional assay for human CRHR2 The ability of the compounds of this invention to inhibit either CRHR2 is assessed by 3′,5′-cyclic adenosine monophosphate (cAMP) production in cells using the LANCE Ultra cAMP assay kit (ParkinElmer), which are designed based on the homogeneous time-resolved fluorescence resonance energy transfer (TR-FRET) immunoassay.
CHO-K1 (Chinese hamster ovary) cells stably expressing human CRHR2-alpha (DiscoveRX, Cat. 95-0048C2) are grown in HAM's F12 media supplemented with 10% fetal bovine serum (FBS), 100 units/mL penicillin G, 100 microg/mL hygromycin and 0.5 microg/mL geneticin at 37° C. in 5% CO2 humidified incubator to 80% confluence. After 7 hours starvation treatment in culture media containing 0.1% FBS, the cells are washed with Hanks balanced salt solution (HBSS) and cryopreserved.
For cAMP assay, frozen cells are thawed and washed with HBSS, followed by resuspending cells in assay buffer (HBSS containing 0.1% bovine serum albumin, 0.5 mM isobutylmethylxanthine and 5 mM Hepes, pH 7.4) at the appropriate concentration for the assay. The cell suspensions are plated on 384-well microplates (Greiner Bio-One) at a density of 4,000 cells per well. After preincubating the cells with various concentrations of the compounds for 30 min at 25° C., an assay buffer containing EC90 concentration of agonist is added and the cells are incubated for 30 min at 25° C. Human urocortin2 (Peptide Institute) is used as agonists for CRHR2. For the termination of assay, europium-labeled cAMP tracer and ULight (registered trademark) dye labeled cAMP antibodies, both prepared with Lance-Ultra cAMP detection reagent (PerkinElmer) are added in the plate and incubate for 60 min at 25° C. After incubation, TR-FRET signal is detected by EnVision plate reader (PerkinElmer). The IC50 values for compounds are calculated from dose-response curves by fitting the percent inhibition using XLfit (ID Business Solutions).
In the case of `O=C(N[C@H]1CC[C@H](CN2C(=O)C(O)(c3cc(F)cc(F)c3F)c3ccccc32)CC1)c1cc(Cl)cnc1C(F)F` (some centres unmarked) [Example 133, 5-chloro-2-(difluoromethyl)-N-((1r,4r)-4-((3-hydroxy-2-oxo-3-(2,3,5-trifluorophenyl)indolin-1-yl)methyl)cyclohexyl) nicotinamide], the IC50 is reported as < 200 nM.
In the case of `COc1cc(C2(O)C(=O)N(C[C@H]3CC[C@H](NC(=O)c4cc(Cl)cnc4C(F)F)CC3)c3ccccc32)c(F)cn1` (some centres unmarked) [Example 27, 5-chloro-2-(difluoromethyl)-N-((1r,4r)-4-((3-(5-fluoro-2-methoxypyridin-4-yl)-3-hydroxy-2-oxoindolin-1-yl)methyl)cyclohexyl) nicotinamide], the IC50 is reported as < 200 nM.
`O=C(N[C@H]1CC[C@H](CN2C(=O)C(O)(c3cc(F)ccc3F)c3ccccc32)CC1)c1cc(Cl)cnc1C(F)F` (some centres unmarked) [Example 58, 5-chloro-2-(difluoromethyl)-N-((1r,4r)-4-((3-(2,5-difluorophenyl)-3-hydroxy-2-oxoindolin-1-yl)methyl)cyclohexyl) nicotinamide] was tested, and the IC50 was < 200 nM.
In the case of `COc1cccc(C2(O)C(=O)N(C[C@H]3CC[C@H](NC(=O)c4cc(Cl)cnc4C(F)F)CC3)c3ccccc32)c1F` (some centres unmarked) [Example 66, 5-chloro-2-(difluoromethyl)-N-((1r,4r)-4-((3-(2-fluoro-3-methoxyphenyl)-3-hydroxy-2-oxoindolin-1-yl)methyl)cyclohexyl) nicotinamide], the IC50 is reported as < 200 nM.
With `COc1cc(C2(O)C(=O)N(C[C@H]3CC[C@H](NC(=O)c4cc(Cl)cnc4C(F)F)CC3)c3cc(F)ccc32)c(F)cn1` (some centres unmarked) [Example 115, 5-chloro-2-(difluoromethyl)-N-((1r,4r)-4-((6-fluoro-3-(5-fluoro-2-methoxypyridin-4-yl)-3-hydroxy-2-oxoindolin-1-yl)methyl)cyclohexyl) nicotinamide] the IC50 was < 200 nM.
In the case of `Cc1cccc2c1C(O)(c1ccccc1F)C(=O)N2C[C@H]1CC[C@H](NC(=O)c2cc(Cl)cnc2C(F)F)CC1` (some centres unmarked) [Example 179, 5-chloro-2-(difluoromethyl)-N-((1r,4r)-4-((3-(2-fluorophenyl)-3-hydroxy-4-methyl-2-oxoindolin-1-yl)methyl)cyclohexyl) nicotinamide], the IC50 is reported as < 200 nM.
For `O=C(N[C@H]1CC[C@H](CN2C(=O)C(O)(c3ccccc3F)c3ccc(Cl)cc32)CC1)c1cc(Cl)cnc1C(F)F` (some centres unmarked) [Example 170, 5-chloro-N-((1r,4r)-4-((6-chloro-3-(2-fluorophenyl)-3-hydroxy-2-oxoindolin-1-yl)methyl)cyclohexyl)-2-(difluoromethyl)nicotinamide], the IC50 was < 200 nM.
With `Cc1cccc(C2(O)C(=O)N(C[C@H]3CC[C@H](NC(=O)c4cc(Cl)cnc4C(F)F)CC3)c3ccccc32)c1` (some centres unmarked) [Example 49, 5-chloro-2-(difluoromethyl)-N-((1r,4r)-4-((3-hydroxy-2-oxo-3-(m-tolyl)indolin-1-yl)methyl)cyclohexyl) nicotinamide] the IC50 was < 200 nM.
For `COc1ccc(F)c(C2(O)C(=O)N(C[C@H]3CC[C@H](NC(=O)c4cc(Cl)cnc4C(F)F)CC3)c3cccc(F)c32)c1` (some centres unmarked) [Example 189, 5-chloro-2-(difluoromethyl)-N-((1r,4r)-4-((4-fluoro-3-(2-fluoro-5-methoxyphenyl)-3-hydroxy-2-oxoindolin-1-yl)methyl)cyclohexyl) nicotinamide], the IC50 was < 200 nM.
With `O=C(N[C@H]1CC[C@H](CN2C(=O)C(O)(c3ccsc3)c3ccccc32)CC1)c1cc(Cl)cnc1C(F)F` (some centres unmarked) [Example 92, 5-chloro-2-(difluoromethyl)-N-((1r,4r)-4-((3-hydroxy-2-oxo-3-(thiophen-3-yl)indolin-1-yl)methyl)cyclohexyl) nicotinamide] the IC50 was < 200 nM.
For `O=C(N[C@H]1CC[C@H](CN2C(=O)C(O)(c3ccccc3F)c3ccccc32)CC1)c1cc(Cl)cnc1C(F)F` (some centres unmarked) [Example 33, 5-chloro-2-(difluoromethyl)-N-((1r,4r)-4-((3-(2-fluorophenyl)-3-hydroxy-2-oxoindolin-1-yl)methyl)cyclohexyl) nicotinamide], the IC50 was < 200 nM.
With `O=C(N[C@H]1CC[C@H](CN2C(=O)C(O)(c3cccc(F)c3F)c3ccccc32)CC1)c1cc(Cl)cnc1Cl` (some centres unmarked) [Example 167, 2,5-dichloro-N-((1r,4r)-4-((3-(2,3-difluorophenyl)-3-hydroxy-2-oxoindolin-1-yl)methyl)cyclohexyl) nicotinamide] the IC50 was < 200 nM.
For `O=C(N[C@H]1CC[C@H](CN2C(=O)C(O)(c3ccc(F)cn3)c3ccc(F)cc32)CC1)c1cc(Cl)cnc1C(F)F` (some centres unmarked) [Example 79, 5-chloro-2-(difluoromethyl)-N-((1r,4r)-4-((6-fluoro-3-(5-fluoropyridin-2-yl)-3-hydroxy-2-oxoindolin-1-yl)methyl)cyclohexyl) nicotinamide], the IC50 was < 200 nM.
`O=C(N[C@H]1CC[C@H](CN2C(=O)C(O)(c3cccc(F)c3F)c3c(F)cccc32)CC1)c1cc(Cl)cnc1C(F)F` (some centres unmarked) [Example 192, 5-chloro-2-(difluoromethyl)-N-((1r,4r)-4-((3-(2,3-difluorophenyl)-4-fluoro-3-hydroxy-2-oxoindolin-1-yl)methyl)cyclohexyl) nicotinamide] was tested, and the IC50 was < 200 nM.
For `O=C(N[C@H]1CC[C@H](CN2C(=O)C(O)(c3ccncc3F)c3ccc(F)cc32)CC1)c1cc(Cl)cnc1C(F)F` (some centres unmarked) [Example 85, 5-chloro-2-(difluoromethyl)-N-((1r,4r)-4-((6-fluoro-3-(3-fluoropyridin-4-yl)-3-hydroxy-2-oxoindolin-1-yl)methyl)cyclohexyl) nicotinamide], the IC50 was < 200 nM.
For `Cc1cccc(C2(O)C(=O)N(C[C@H]3CC[C@H](NC(=O)c4cc(Cl)cnc4C(F)F)CC3)c3ccccc32)c1F` (some centres unmarked) [Example 63, 5-chloro-2-(difluoromethyl)-N-((1r,4r)-4-((3-(2-fluoro-3-methylphenyl)-3-hydroxy-2-oxoindolin-1-yl)methyl)cyclohexyl) nicotinamide], the IC50 was < 200 nM.
With `Cc1ccc2c(c1)N(C[C@H]1CC[C@H](NC(=O)c3cc(Cl)cnc3C(F)F)CC1)C(=O)C2(O)c1ccncc1F` (some centres unmarked) [Example 149, 5-chloro-2-(difluoromethyl)-N-((1r,4r)-4-((3-(3-fluoropyridin-4-yl)-3-hydroxy-6-methyl-2-oxoindolin-1-yl)methyl)cyclohexyl) nicotinamide] the IC50 was < 200 nM.
`O=C(N[C@H]1CC[C@H](CN2C(=O)C(O)(c3sccc3F)c3ccccc32)CC1)c1cc(Cl)cnc1C(F)F` (some centres unmarked) [Example 95, 5-chloro-2-(difluoromethyl)-N-((1r,4r)-4-((3-(3-fluorothiophen-2-yl)-3-hydroxy-2-oxoindolin-1-yl)methyl)cyclohexyl) nicotinamide] was tested, and the IC50 was < 200 nM.
With `COc1ccc2c(c1)N(C[C@H]1CC[C@H](NC(=O)c3cc(Cl)cnc3C(F)F)CC1)C(=O)C2(O)c1ccccc1F` (some centres unmarked) [Example 105, 5-chloro-2-(difluoromethyl)-N-((1r,4r)-4-((3-(2-fluorophenyl)-3-hydroxy-6-methoxy-2-oxoindolin-1-yl)methyl)cyclohexyl) nicotinamide] the IC50 was < 200 nM.
In the case of `COc1ccc(C2(O)C(=O)N(C[C@H]3CC[C@H](NC(=O)c4cc(Cl)cnc4C(F)F)CC3)c3ccccc32)s1` (some centres unmarked) [Example 99, 5-chloro-2-(difluoromethyl)-N-((1r,4r)-4-((3-hydroxy-3-(5-methoxythiophen-2-yl)-2-oxoindolin-1-yl)methyl)cyclohexyl) nicotinamide], the IC50 is reported as < 200 nM.
`O=C(N[C@H]1CC[C@H](CN2C(=O)C(O)(c3ccc(Cl)cn3)c3cc(F)ccc32)CC1)c1cc(Cl)cnc1C(F)F` (some centres unmarked) [Example 125, 5-chloro-N-((1r,4r)-4-((3-(5-chloropyridin-2-yl)-5-fluoro-3-hydroxy-2-oxoindolin-1-yl)methyl)cyclohexyl)-2-(difluoromethyl)nicotinamide] was tested, and the IC50 was < 200 nM.
`O=C(N[C@H]1CC[C@H](CN2C(=O)C(O)(c3cc(F)ccc3F)c3ccc(F)cc32)CC1)c1cc(Cl)cnc1C(F)F` (some centres unmarked) [Example 118, 5-chloro-2-(difluoromethyl)-N-((1r,4r)-4-((3-(2,5-difluorophenyl)-6-fluoro-3-hydroxy-2-oxoindolin-1-yl)methyl)cyclohexyl)nicotinamide] was tested, and the IC50 was < 200 nM.
For `O=C(N[C@H]1CC[C@H](CN2C(=O)C(O)(c3cccc(F)c3F)c3ccccc32)CC1)c1cc(Cl)cnc1C(F)F` (some centres unmarked) [Example 40, 5-chloro-2-(difluoromethyl)-N-((1r,4r)-4-((3-(2,3-difluorophenyl)-3-hydroxy-2-oxoindolin-1-yl)methyl)cyclohexyl) nicotinamide], the IC50 was < 200 nM.

Reference: patent US12421191B2, “3-hydroxyoxindole derivatives as CRHR2 antagonist” (RaQualia Pharma Inc., priority 2020, dated 2025)
